Data from patent publication US11260108B2, “MIC-1 and GLP-1 for use in the treatment of obesity” (Novo Nordisk A/S, priority 2017, dated 2022).

Tested on: male obese Sprague Dawley rats
Assay: Body weight lowering in obese rat, MIC-1-HSA in combination with semaglutide (Example 2)
Format: in vivo
Source text: The purpose of the study in example 2 was to investigate effects of a MIC-1-HSA compound in combination with the GLP-1 compound semaglutide on body weight lowering in obese rat.
60 male obese Sprague Dawley rats from Taconic were used. Animals where housed 2 per cage and had ad libitum access to high-fat diet (45 kcal % fat, Research Diets Inc, diet 12451). Mean starting body weight was 736.0 g (634.7-982.4 g). Animals were randomised into 6 groups based on body weight (n=10). Animals were housed in reversed light cycle (dark 11:00-23:00). Vehicle and semaglutide were dosed subcutaneously (SC) once daily (QD) for the duration of the study (study day 0-26) at 10 am. Because of the immunogenic properties of MIC-1-HSA in rodents, the dosing period with MIC-1-HSA was limited to 12 days. MIC-1-HSA was dosed SC every other day, starting at study day 15 and ending at day 26. The two compounds were in all cases dosed individually and were not administrated in the same formulation using the same syringe.
Due to a long in vivo terminal half-life of MIC-1 HSA (˜50 hrs in lean rat) animals were dosed with a bolus dose at day 15 and subsequent doses of MIC-1-HSA were reduced to compensate for the protracted half-life to achieve a stable plasma exposure during the study. […] Dose volume was adjusted to daily body weight. Please see table 3.
The dose of Semaglutide was 2 nmol/kg and was selected in order to achieve a therapeutic relevant pharmaco-dynamic effect.
From day −1 and during the entire dosing period until day 26, body weight was monitored daily prior to dosing.
The dosing was performed using insulin syringe and a dosing volume of 1 ml/kg (2.3 ml/kg for bolus dose of MIC-1-HSA).
In table 4 are shown pharmacodynamic effects expressed as changes in body weights of obese rats in response to the 6 treatment arms. Data are expressed as the average values as grams (A) and as percentages (B). “Delta 0-26” is the change in body weight from day 0 to day 26. “vs vehicle” is the change in body weight at day 26 in comparison with the vehicle group at day 26. “Predicted” is the expected change in body weight based on body weight changes in the associated MIC-1-HSA and semaglutide mono-therapy arms. “Synergy” expresses the unexpected and additional effect beyond the predicted effect of the MIC-1-HSA and semaglutide combination. This value is calculated by subtracting the predicted value from the actual effect of the combination (vs vehicle). A negative synergy value reflects an additional unexpected synergistic body weight lowering effect.

[1] = Sema 2 nmol/kg, change day 0 to day 26
[2] = Sema 2 nmol/kg, day 26 vs vehicle group

“N6.26-{18-[N-(17-carboxyheptadecanoyl)-L-γ-glutamyl]-10-oxo-3,6,12,15-tetraoxa-9,18-diazaoctadecanoyl}-[8-(2-amino-2-propanoic acid),34-L-arginine]human glucagon-like peptide 1(7-37) [Sema]” was tested, and the “Body weight [% of study start] Study end” value (Sema 2 nmol/kg SC QD day 0-26) was 95 % of study start, the “Body weight [gram] Study end” value (Sema 2 nmol/kg SC QD day 0-26) was 746 gram and the “Body weight [% of study start] Delta 0-26” value [1] was −5.4 % of study start. The “Body weight [gram] Delta 0-26” value [1] was −41.8 gram, the “Body weight [% of study start] vs vehicle” value [2] was −8.0 % of study start and the “Body weight [gram] vs vehicle” value [2] was −62.2 gram. The “reduced body weight compared to vehicle” value (semaglutide monotherapy 2 nmol/kg, day 26) was 8.0%.
